# Source: patent US4528287A, “6-Fluoro-1, 4-dihydro-4-oxo-7-substituted piperazinylquinoline-3-carboxylic acids and the method for preparing the same” (priority 1983, dated 1985)
# Where two headings read alike, the source gives them in different places.
# Assays:
# [1] = system: Salmonella schottmulleri 0006; experiment: MIC, twofold agar dilution; assay type: cell-based; conditions: Gram -, 10^6 cells/ml, 18 hrs, 37° C., read-out: Minimum inhibitory concentration (MIC)
# Method: (§1) Minimum inhibitory concentrations (MIC) were determined by the twofold agar dilution method (Chemotherapy, 29(1), 76(1981)). Overnight cultures in Mueller-Hinton broth were suspended by buffered saline gelatine. One loopful of the bacterial suspension (10^6 or 10^8 colony-forming units/ml) was incubated onto the test compound-containing plates. The plates were incubated for 18 hrs. at 37° C. The MIC was the lowest concentration of the drug that inhibited visible growth.
# Proteus morganii IFO3848 = experiment: MIC, twofold agar dilution; assay type: cell-based; conditions: Morganella morganii, Gram -, 10^6 cells/ml, 18 hrs, 37° C., read-out: Minimum inhibitory concentration (MIC)
# Method: as §1
# [2] = system: Escherichia coli NIHJ-JC-2; experiment: MIC, twofold agar dilution; assay type: cell-based; conditions: NIHJJC2, Gram -, 10^6 cells/ml, 18 hrs, 37° C., read-out: Minimum inhibitory concentration (MIC)
# Method: as §1
# [3] = system: Pseudomonas aeruginosa ATCC9027; experiment: MIC, twofold agar dilution; assay type: cell-based; conditions: Gram -, 10^6 cells/ml, 18 hrs, 37° C., read-out: Minimum inhibitory concentration (MIC)
# Method: as §1
# Proteus vulgalis HX-19 = experiment: MIC, twofold agar dilution; assay type: cell-based; conditions: Gram -; 10^6 cells/ml; 18 hrs, 37° C.; read-out: Minimum inhibitory concentration (MIC)
# Method: as §1
# [4] = system: Salmonella typhimurium IID 971; experiment: MIC, twofold agar dilution; assay type: cell-based; conditions: Salmonella enterica; Gram -; 10^6 cells/ml; 18 hrs, 37° C.; read-out: Minimum inhibitory concentration (MIC)
# Method: as §1
# [5] = system: Enterobacter aerogenes ATCC13048; experiment: MIC, twofold agar dilution; assay type: cell-based; conditions: Klebsiella aerogenes, Gram -, 10^6 cells/ml, 18 hrs, 37° C., read-out: Minimum inhibitory concentration (MIC)
# Method: as §1
# [6] = system: Pseudomonas aeruginosa IFO3445; experiment: MIC, twofold agar dilution; assay type: cell-based; conditions: Gram -, 10^6 cells/ml, 18 hrs, 37° C., read-out: Minimum inhibitory concentration (MIC)
# Method: as §1
# [7] = system: Klebsiella pneumoniae PCI-602; experiment: MIC, twofold agar dilution; assay type: cell-based; conditions: PCI602, Gram -, 10^6 cells/ml, 18 hrs, 37° C., read-out: Minimum inhibitory concentration (MIC)
# Method: as §1
# Proteus rettgeri IFO3850 = experiment: MIC, twofold agar dilution; assay type: cell-based; conditions: Providencia rettgeri, Gram -, 10^6 cells/ml, 18 hrs, 37° C., read-out: Minimum inhibitory concentration (MIC)
# Method: as §1
# [8] = system: Pseudomonas aeruginosa NCTC10490; experiment: MIC, twofold agar dilution; assay type: cell-based; conditions: Gram -, 10^6 cells/ml, 18 hrs, 37° C., read-out: Minimum inhibitory concentration (MIC)
# Method: as §1
# [9] = system: Staphylococcus aureus MS-353; experiment: MIC, twofold agar dilution; assay type: cell-based; conditions: MS353, Gram +, 10^6 cells/ml, 18 hrs, 37° C., read-out: Minimum inhibitory concentration (MIC)
# Method: as §1
# [10] = system: Serratia marcescens IAM1184; experiment: MIC, twofold agar dilution; assay type: cell-based; conditions: Gram -, 10^6 cells/ml, 18 hrs, 37° C., read-out: Minimum inhibitory concentration (MIC)
# Method: as §1
# [11] = system: Enterobacter cloaceas 963; experiment: MIC, twofold agar dilution; assay type: cell-based; conditions: Gram -, 10^6 cells/ml, 18 hrs, 37° C., read-out: Minimum inhibitory concentration (MIC)
# Method: as §1
# Salmonella typhi 901 = experiment: MIC, twofold agar dilution; assay type: cell-based; conditions: Salmonella enterica, 18 h, read-out: Minimum inhibitory concentration (MIC)
# Method: as §1
# [12] = system: Staphylococcus aureus FAD208PJC-1; experiment: MIC, twofold agar dilution; assay type: cell-based; conditions: FAD208PJC1, Gram +, 10^6 cells/ml, 18 hrs, 37° C., read-out: Minimum inhibitory concentration (MIC)
# Method: as §1
# [13] = system: Bacillus subtilis ATCC6633; experiment: MIC, twofold agar dilution; assay type: cell-based; conditions: Gram +, 10^6 cells/ml, 18 hrs, 37° C., read-out: Minimum inhibitory concentration (MIC)
# Method: as §1
# [14] = system: Streptococcus pyogenes Cook; experiment: MIC, twofold agar dilution; assay type: cell-based; conditions: Gram +, 10^6 cells/ml, 18 hrs, 37° C., read-out: Minimum inhibitory concentration (MIC)
# Method: as §1
# Proteus vulgalis OX-19 = experiment: MIC, twofold agar dilution; assay type: cell-based; conditions: Gram -; 10^6 cells/ml; 18 hrs, 37° C.; read-out: Minimum inhibitory concentration (MIC)
# Method: as §1
# [15] = system: Pseudomonas aeruginosa PAO7; experiment: MIC, twofold agar dilution; assay type: cell-based; conditions: Gram -, 10^6 cells/ml, 18 hrs, 37° C., read-out: Minimum inhibitory concentration (MIC)
# Method: as §1
# [16] = system: Staphylococcus aureus Terajima; experiment: MIC, twofold agar dilution; assay type: cell-based; conditions: Gram +, 10^6 cells/ml, 18 hrs, 37° C., read-out: Minimum inhibitory concentration (MIC)
# Method: as §1
# [17] = system: Micrococcus luteus ATCC9341; experiment: MIC, twofold agar dilution; assay type: cell-based; conditions: Gram +, 10^6 cells/ml, 18 hrs, 37° C., read-out: Minimum inhibitory concentration (MIC)
# Method: as §1
# [18] = system: Proteus mirabilis IFO3849; experiment: MIC, twofold agar dilution; assay type: cell-based; conditions: Gram -, 10^6 cells/ml, 18 hrs, 37° C., read-out: Minimum inhibitory concentration (MIC)
# Method: as §1
# [19] = system: Salmonella enteritidis G14; experiment: MIC, twofold agar dilution; assay type: cell-based; conditions: Salmonella enterica, Gram -, 10^6 cells/ml, 18 hrs, 37° C., read-out: Minimum inhibitory concentration (MIC)
# Method: as §1
# [20] = system: Salmonella paratyphi 1015; experiment: MIC, twofold agar dilution; assay type: cell-based; conditions: Salmonella enterica, 18 h, read-out: Minimum inhibitory concentration (MIC)
# Method: as §1
# [21] = system: Escherichia coli K-12 C600; experiment: MIC, twofold agar dilution; assay type: cell-based; conditions: K12C600, Gram -, 10^6 cells/ml, 18 hrs, 37° C., read-out: Minimum inhibitory concentration (MIC)
# Method: as §1
# [22] = Urinary excretion in rats after oral dosing (bioassay with Escherichia coli NIHJ-JC-2); assay type: in vivo, SD strain); conditions: rat, male SD rats, 20 mg/Kg per os, fasted 24 hr; for concentration at 6 h: urine 0-6 hr, read-out: Drug Concentration in Urine 0-6 (hr); for dose excreted at 24 h: urine 0-24 hr, read-out: Rate of Urinary Excretion 0-24 (hr); for concentration at 24 h: urine 6-24 hr, read-out: Drug Concentration in Urine 6-24 (hr)
# Method: Male rats of SD strain, weighing 180-210 g, were used 8 animals at a group. Test compounds suspended in 0.5% carboxymethyl cellulose were administered per os to 24 hr-fasted rats at dose of 20 mg/Kg. Urine was pooled from 0 to 6 hrs. and 6 to 24 hrs, and urinary excretion was measured by bioassay using Escherichia coli NIHJ-JC-2.
# The assay method employed was the cup-plate method using
# Escherichia coli NIHJ-JC-2. Urine was appropriately diluted with 1/15M phosphate buffer pH7.0, before assay if necessary. Standard calibration lines were made in 1/15M phosphate buffer pH7.0.
# in vivo = conditions: mouse, male ddY mice, 10 days
# Method: Male mice of ddY strain, 4 weeks old, were used with 10 animals at a group. Test compounds suspended in 0.5% carboxymethyl cellulose were administered per os (p.o.) in mice. In the case of intraveneous (i.v.) administration, test compounds were solved in 0.1N-HCl solution and neutralized with 0.1N-NaOH solution.
SMILES,MIC [1] [µg/mL],MIC (Proteus morganii IFO3848) [µg/mL],MIC [2] [µg/mL],MIC [3] [µg/mL],MIC (Proteus vulgalis HX-19) [µg/mL],MIC [4] [µg/mL],MIC [5] [µg/mL],MIC [6] [µg/mL],MIC [7] [µg/mL],MIC (Proteus rettgeri IFO3850) [µg/mL],MIC [8] [µg/mL],MIC [9] [µg/mL],MIC [10] [µg/mL],MIC [11] [µg/mL],MIC (Salmonella typhi 901) [µg/mL],MIC [12] [µg/mL],MIC [13] [µg/mL],MIC [14] [µg/mL],MIC (Proteus vulgalis OX-19) [µg/mL],MIC [15] [µg/mL],other results
CCn1cc(C(=O)O)c(=O)c2cc(F)c(N3CC(C)NC(C)C3)c(F)c21 (stereo not shown) [Example 20],0.1,0.2,0.39,0.2,0.2,0.2,0.2,3.13,0.2,0.39,0.78,1.56,0.78,0.2,0.1,0.78,0.2,6.25,0.1,3.13,MIC [16]: 1.56 µg/mL; MIC [17]: 12.5 µg/mL; MIC [18]: 1.56 µg/mL; MIC [19]: 0.39 µg/mL; MIC [20]: 0.1 µg/mL; MIC [21]: 0.2 µg/mL
"CC1CN(c2c(F)cc3c(=O)c(C(=O)O)cn(CCF)c3c2F)CCN1 (stereo not shown) [Example 16, 6,8-Difluoro-1-(2-fluoroethyl)-1,4-dihydro-7-(3-methyl-1-piperazinyl)-4-oxoquinoline-3-carboxylic acid]",0.1,0.05,0.1,0.1,0.05,0.2,0.2,0.78,0.023,0.2,0.38,1.56,0.2,0.2,0.1,0.38,0.2,3.13,0.2,1.56,MIC [16]: 0.78 µg/mL; MIC [17]: 6.25 µg/mL; MIC [18]: 0.39 µg/mL; MIC [19]: 0.2 µg/mL; MIC [20]: 0.05 µg/mL; MIC [21]: 0.2 µg/mL; concentration at 6 h [22]: 344 µg/mL; dose excreted at 24 h [22]: 41%; concentration at 24 h [22]: 46000 ng/mL
"CCn1cc(C(=O)O)c(=O)c2cc(F)c(N3CCNC(C)C3)cc21 (stereo not shown) [Example 1, 1-Ethyl-6-fluoro-1,4-dihydro-7-(3-methyl-1-piperazinyl)-4-oxoquinoline-3-carboxylic acid]",0.025,0.025,0.1,0.1,0.025,0.1,0.1,0.78,0.025,0.1,0.39,0.39,0.2,0.1,0.05,0.2,0.1,3.13,0.05,0.78,"LD50 at 240 h (in vivo; iv, i.v., read-out: LD50 i.v. (95% Confidence Limit)): 348 mg/kg; LD50 at 240 h (in vivo; po, p.o., read-out: LD50 p.o.): > 4000 mg/kg; MIC [16]: 0.39 µg/mL; MIC [17]: 25 µg/mL; MIC [18]: 0.39 µg/mL; MIC [19]: 0.1 µg/mL; MIC [20]: 0.0125 µg/mL; MIC [21]: 0.1 µg/mL; concentration at 6 h [22]: 514 µg/mL; dose excreted at 24 h [22]: 30%; concentration at 24 h [22]: 28000 ng/mL"
"CCn1cc(C(=O)O)c(=O)c2cc(F)c(N3CCNCC3)cc21 [Reference Drug, norfloxacin, reference compound]",0.025,0.025,0.05,0.05,0.025,0.05,0.1,0.78,0.025,0.05,0.78,6.25,0.1,0.05,0.025,0.2,0.1,1.56,0.05,0.39,MIC [16]: 0.39 µg/mL; MIC [17]: 6.25 µg/mL; MIC [18]: 0.1 µg/mL; MIC [19]: 0.05 µg/mL; MIC [20]: 0.025 µg/mL; MIC [21]: 0.05 µg/mL
